# Experimental data reported in patent publication US12091426B2, “Bifunctional degraders of hematopoietic progenitor kinase and therapeutic uses thereof” (Nurix Therapeutics, Inc., priority 2021, dated 2024).
# Biological target: T1, HPK1 (Homo sapiens, UniProt Q92918)
# T1 construct: A HiBiT tag was introduced by CRISPR on the N terminus of HPK1 in Jurkat cells; host or cells: Jurkat cells (ATCC TIB-152), monoclonal line with CRISPR knock-in of HiBiT at the endogenous HPK1 locus
# Test: HPK1 Cellular HiBit Degradation Assay
# Format: cell-based
# Conditions: HiBiT HPK1 Jurkat cells, 24 hrs; for DC50: concentration at which 50% of HPK1 was remaining, read-out: DC50 Category; for Dmax: Jurkat, maximum degradation vs DMSO vehicle control, read-out: Dmax Category
# Summary of the method: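 HPK1 levels are read by HiBiT luminescence after 24 h exposure of HiBiT-knock-in Jurkat cells to compound at 10 uM–0.1 nM final (11 points). Relative to DMSO (100%), DC50 is the concentration leaving 50% HPK1 from a variable-slope fit, and Dmax is 100 minus minimum remaining. Viability checked in-plate.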
# T1 sequence (Q92918 whole entry): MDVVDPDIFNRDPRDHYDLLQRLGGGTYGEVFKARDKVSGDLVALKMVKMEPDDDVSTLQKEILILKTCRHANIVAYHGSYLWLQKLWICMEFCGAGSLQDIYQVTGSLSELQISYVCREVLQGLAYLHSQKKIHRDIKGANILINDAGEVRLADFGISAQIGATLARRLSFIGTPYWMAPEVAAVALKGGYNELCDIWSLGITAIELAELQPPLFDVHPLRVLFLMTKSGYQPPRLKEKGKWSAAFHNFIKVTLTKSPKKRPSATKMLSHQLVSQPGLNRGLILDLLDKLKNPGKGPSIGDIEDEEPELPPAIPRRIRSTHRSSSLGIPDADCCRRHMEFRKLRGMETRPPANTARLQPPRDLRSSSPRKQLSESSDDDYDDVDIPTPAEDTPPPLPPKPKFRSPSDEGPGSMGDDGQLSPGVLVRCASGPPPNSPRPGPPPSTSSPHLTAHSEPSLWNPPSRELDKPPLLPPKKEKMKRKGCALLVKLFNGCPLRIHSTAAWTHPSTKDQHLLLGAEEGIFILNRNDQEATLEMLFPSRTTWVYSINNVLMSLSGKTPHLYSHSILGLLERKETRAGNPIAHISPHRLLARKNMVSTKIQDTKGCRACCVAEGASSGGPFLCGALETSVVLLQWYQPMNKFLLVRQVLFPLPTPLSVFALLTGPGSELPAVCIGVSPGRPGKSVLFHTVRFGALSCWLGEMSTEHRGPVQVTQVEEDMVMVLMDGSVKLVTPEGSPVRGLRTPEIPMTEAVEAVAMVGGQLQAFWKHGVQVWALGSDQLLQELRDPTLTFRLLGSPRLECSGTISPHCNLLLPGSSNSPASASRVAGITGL
Structure (SMILES),DC50,Dmax
"CC(C)n1cnc2cc(-c3ccc4c(c3)N([C@H]3C[C@@H](N5CCCCC5)C3)C(=O)C43CCN(C(=O)C4CN(C(=O)C5CCN(c6ccc(C7CCC(=O)NC7=O)cc6)CC5)CC(F)(F)C4)CC3)nc(NC3CC3)c21 (mixture of isomers) [Example 268, (3RS)-3-(4-{4-[5-({6-[4-(cyclopropylamino)-3-(propan-2-yl)-3H-imidazo[4,5-c]pyridin-6-yl]-2-oxo-1-[(1S,3S)-3-(piperidin-1-yl)cyclobutyl]-1,2-dihydrospiro[indole-3,4′-piperidin]-1′-yl}carbonyl)-3,3-Difluoropiperidine-1-carbonyl]piperidin-1-yl}phenyl)piperidine-2,6-dione]",100 to 500 nM,50 to 70%
"CC(C)n1cnc2cc(-c3ccc4c(c3)N([C@H]3C[C@@H](N5CCCCC5)C3)C(=O)C43CCN(C(=O)C4CCN(C(=O)C5CCN(c6ccc(C7CCC(=O)NC7=O)nc6)CC5)CC4)CC3)nc(NC3CC3)c21 (stereo partly drawn) [Example 84, 3-(5-{4-[4-({6-[4-(cyclopropylamino)-3-(propan-2-yl)-3H-imidazo[4,5-c]pyridin-6-yl]-2-Oxo-1-[(1S,3S)-3-(piperidin-1-yl)cyclobutyl]-1,2-dihydrospiro[indole-3,4′-piperidin]-1′-yl}carbonyl)piperidine-1-carbonyl]piperidin-1-yl}pyridin-2-yl)piperidine-2,6-dione]",100 to 500 nM,50 to 70%
"CC(C)n1cnc2cc(-c3ccc4c(c3)N([C@H]3C[C@@H](N5CCCCC5)C3)C(=O)C43CCN(C(=O)[C@H]4CC[C@H](C(=O)N5CCC(N(C)c6ccc(C7CCC(=O)NC7=O)cc6)CC5)CC4)CC3)nc(NC3CC3)c21 (mixture of isomers) [Example 134, (3RS)-3-{4-[methyl({1-[(1R,4R)-4-({6-[4-(cyclopropylamino)-3-(propan-2-yl)-3H-imidazo[4,5-c]pyridin-6-yl]-2-oxo-1-[(1S,3S)-3-(piperidin-1-yl)cyclobutyl]-1,2-dihydrospiro[indole-3,4′-piperidin]-1′-yl}carbonyl)cyclohexanecarbonyl]piperidin-4-yl})amino]phenyl}piperidine-2,6-dione]",100 to 500 nM,50 to 70%
"CC(C)n1cnc2cc(-c3ccc4c(c3)N([C@H]3C[C@@H](N5CCCCC5)C3)C(=O)C43CCN(C(=O)C4CCC5(CC4)CCN(C(=O)C4CCN(c6ccc(C7CCC(=O)NC7=O)cn6)CC4)CC5)CC3)nc(NC3CC3)c21 (mixture of isomers) [Example 295, (3RS)-3-(6-{4-[9-({6-[4-(cyclopropylamino)-3-(propan-2-yl)-3H-imidazo[4,5-c]pyridin-6-yl]-2-oxo-1-[(1S,3S)-3-(piperidin-1-yl)cyclobutyl]-1,2-dihydrospiro[indole-3,4′-piperidin]-1′-yl}carbonyl)-3-azaspiro[5.5]undecane-3-carbonyl]piperidin-1-yl}pyridin-3-yl)piperidine-2,6-dione]",100 to 500 nM,70 to 85%
"CC(C)n1cnc2cc(-c3ccc4c(c3)N([C@H]3C[C@@H](N5CC6CCC(C5)O6)C3)C(=O)C43CCN(C(=O)C4(C)CCN(C(=O)C5CCN(c6ccc(C7CCC(=O)NC7=O)cn6)CC5)CC4)CC3)nc(NC3CC3)c21 (mixture of isomers) [Example 204, (3RS)-3-(6-{4-[4-({6-[4-(cyclopropylamino)-3-(propan-2-yl)-3H-imidazo[4,5-c]pyridin-6-yl]-2-oxo-1-[(1S,3S)-3-{8-oxa-3-Azabicyclo[3.2.1]octan-3-yl}cyclobutyl]-1,2-dihydrospiro[indole-3,4′-piperidin]-1′-yl}carbonyl)-4-methylpiperidine-1-carbonyl]piperidin-1-yl}pyridin-3-yl)piperidine-2,6-dione]",100 to 500 nM,70 to 85%
CC(C)n1cnc2cc(-c3ccc4c(c3)N([C@H]3C[C@@H](N5CC6CCC(C5)O6)C3)C(=O)C43CCN(C(=O)C4(C)CCN(C(=O)C5CCN(c6ccc(C7CCC(=O)NC7=O)cc6)CC5)CC4)CC3)nc(NC3CC3)c21 (mixture of isomers) [Example 197],100 to 500 nM,50 to 70%

# The remaining lines, values ahead:
DC50,Dmax,Structure (SMILES)
< 100 nM,70 to 85%,"CC(C)n1cnc2cc(-c3ccc4c(c3)N([C@H]3C[C@@H](N5CCCCC5)C3)C(=O)C43CCN(C(=O)C4CCN(C(=O)C5CCN(c6ccc(C7CCC(=O)NC7=O)nc6)CC5)CC4)CC3)nc(Nc3ccccc3F)c21 (stereo partly drawn) [Example 85, 3-[5-(4-{4-[(6-{4-[(2-fluorophenyl)amino]-3-(propan-2-yl)-3H-imidazo[4,5-c]pyridin-6-yl}-2-oxo-1-[(1S,3S)-3-(piperidin-1-yl)cyclobutyl]-1,2-dihydrospiro[indole-3,4′-piperidin]-1′-yl)carbonyl]piperidine-1-carbonyl}piperidin-1-yl)pyridin-2-yl]piperidine-2,6-dione]"
100 to 500 nM,50 to 70%,"CC(C)n1cnc2cc(-c3ccc4c(c3)N([C@H]3C[C@@H](N5CCCCC5)C3)C(=O)C43CCN(C(=O)N4CCC(C(=O)N5CCN(c6ccc(C7CCC(=O)NC7=O)cn6)CC5)CC4)CC3)nc(NC3CC3)c21 (stereo partly drawn) [Example 181, 3-(6-{4-[1-({6-[4-(cyclopropylamino)-3-(propan-2-yl)-3H-imidazo[4,5-c]pyridin-6-yl]-2-oxo-1-[(1S,3S)-3-(piperidin-1-yl)cyclobutyl]-1,2-dihydrospiro[indole-3,4′-piperidin]-1′-yl}carbonyl)piperidine-4-carbonyl]piperazin-1-yl}pyridin-3-yl)piperidine-2,6-dione]"
< 100 nM,70 to 85%,"CC(C)n1cnc2cc(-c3ccc4c(c3)N([C@H]3C[C@@H](N5CCCCC5)C3)C(=O)C43CCN(C(=O)[C@H]4CC[C@H](C(=O)N5CCC(N(C)c6ccc(C7CCC(=O)NC7=O)cc6)CC5)CC4)CC3)nc(Nc3ccccc3F)c21 (mixture of isomers) [Example 135, (3RS)-3-{4-[methyl({1-[(1R,4R)-4-[(6-{4-[(2-fluorophenyl)amino]-3-(propan-2-yl)-3H-imidazo[4,5-c]pyridin-6-yl}-2-oxo-1-[(1S,3S)-3-(piperidin-1-yl)cyclobutyl]-1,2-dihydrospiro[indole-3,4′-piperidin]-1′-yl)carbonyl]cyclohexanecarbonyl]piperidin-4-yl})amino]phenyl}piperidine-2,6-dione]"
< 100 nM,70 to 85%,"CC(C)n1cnc2cc(-c3ccc4c(c3)N([C@H]3C[C@@H](N5CCCCC5)C3)C(=O)C43CCN(C(=O)[C@H]4C[C@H]5C[C@@H]4CN5C(=O)C4CCN(c5ccc(C6CCC(=O)NC6=O)cn5)CC4)CC3)nc(NC3CC3)c21 (mixture of isomers) [Example 261, (3RS)-3-(6-{4-[(1R,4S,5S)-5-({6-[4-(cyclopropylamino)-3-(propan-2-yl)-3H-imidazo[4,5-c]pyridin-6-yl]-2-oxo-1-[(1S,3S)-3-(piperidin-1-yl)cyclobutyl]-1,2-dihydrospiro[indole-3,4′-piperidin]-1′-yl}carbonyl)-2-azabicyclo[2.2.1]heptane-2-carbonyl]piperidin-1-yl}pyridin-3-yl)piperidine-2,6-dione]"
< 100 nM,> 85%,"CC(C)n1cnc2cc(-c3ccc4c(c3)N([C@H]3C[C@@H](N5CCCCC5)C3)C(=O)C43CCN(C(=O)C4(C)CCN(C(=O)[C@H]5CC[C@H](Oc6ccc(C7CCC(=O)NC7=O)cc6)CC5)CC4)CC3)nc(Nc3ccccc3F)c21 (mixture of isomers) [Example 102, (3RS)-3-(4-{[(1R,4R)-4-{4-[(6-{4-[(2-fluorophenyl)amino]-3-isopropylimidazo[4,5-c]pyridin-6-yl}-2-oxo-1-[(1S,3S)-3-(piperidin-1-yl)cyclobutyl]spiro[indole-3,4′-piperidin]-1′-yl)carbonyl]-4-methylpiperidine-1-carbonyl}cyclohexyl]oxy}phenyl)piperidine-2,6-dione]"
